Measured values taken from US20080221195A1, “1,2-DIARYLACETYLENE DERIVATIVES OF ACYLTRYPTOPHANOLS” (priority 2006, published 2008).

These compounds were tested against T1, human FSH receptor (Homo sapiens, UniProt P23945) (assay: HTRF assay for measuring cAMP in cells (FSH-antagonistic effect)). Conditions: hFSHR clone 16 cells (CHO cells stably transfected with the human FSH receptor), in the presence of 1e-9 mol/l hFSH, 37° C. for 2 h.
T1 construct: expressed in transfected cells; host or cells: CHO cells (hFSHR clone 16)
T1 sequence (P23945 18-695): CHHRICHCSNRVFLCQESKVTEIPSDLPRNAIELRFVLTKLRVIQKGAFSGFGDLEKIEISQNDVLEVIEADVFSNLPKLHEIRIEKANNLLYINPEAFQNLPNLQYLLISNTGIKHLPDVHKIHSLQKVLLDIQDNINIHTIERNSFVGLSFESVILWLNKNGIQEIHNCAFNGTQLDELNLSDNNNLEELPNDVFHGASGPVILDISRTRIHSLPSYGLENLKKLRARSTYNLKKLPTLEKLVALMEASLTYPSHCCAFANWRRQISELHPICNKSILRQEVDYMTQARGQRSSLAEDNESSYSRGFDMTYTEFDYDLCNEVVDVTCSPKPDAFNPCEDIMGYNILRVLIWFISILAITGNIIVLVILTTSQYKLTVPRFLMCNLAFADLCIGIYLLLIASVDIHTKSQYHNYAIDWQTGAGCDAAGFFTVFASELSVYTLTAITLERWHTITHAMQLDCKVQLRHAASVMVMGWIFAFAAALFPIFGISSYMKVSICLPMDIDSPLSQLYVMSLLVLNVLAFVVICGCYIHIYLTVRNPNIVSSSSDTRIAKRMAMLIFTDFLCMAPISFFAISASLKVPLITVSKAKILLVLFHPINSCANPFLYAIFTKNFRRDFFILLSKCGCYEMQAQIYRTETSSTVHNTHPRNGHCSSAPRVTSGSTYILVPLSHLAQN
Type: cell-based
Experimental: HTRF Assay for Measuring cAMP in Cells
The method is based on a competitive immunoassay between native cAMP, which has been produced by the cells, and cAMP which is labelled with cAMPD2 conjugate. The tracer binding was visualized by a monoclonal antibody, anti-cAMP labelled with cryptate [HTRF=homogeneous time-resolved fluorescence].
The specific signal is inversely proportional to the cAMP concentration of the samples employed.
The 665 nm/620 nm fluorescence ratio was evaluated.
Materials used: 96-well plates for the tissue culture, 96-well plates with black edge and black base (e.g. Fluotrac 600 from Greiner), 96-well plates for the substance dilutions of polypropylene and cAMP Femtomolar (4000 wells Kit, CIS Bio International # 62AM5PEJ).
Reagent used: BSA (bovine serum albumin) Fraction V protease-free, IBMX (3-isobutyl-1-methylxanthine), hFSH (human follicle stimulating hormone), Triton X-100 analytical grade, potassium fluoride analytical grade, G 418 (Geneticin) and Accutase.
Buffer 1 (washing and testing buffer) contained PBS, 1 mM CaCl2, 1 mM MgCl2, 0.2% glucose; 0.1% BSA, 1 mM IBMX.
Buffer 2 (2× lysis buffer) contained 1% Triton X-100 in PBS (without CaCl2 and MgCl2).
Buffer 3 (assay buffer) contained 50 mM potassium phosphate buffer (pH 7.0); 800 mM potassium fluoride; 0.2% BSA (always added fresh).
On day 1, the cells were seeded in 96-well plates (3×10^4 cells per well hFSHR clone 16 cells (CHO cells stably transfected with the human FSH receptor in 150 μl of medium). The next day, test substance dilutions were made up. For this purpose, all the substances were diluted in ice-cold buffer 1 (with or without hFSH), and the substance dilutions were placed on ice until applied to the cells. The cell supernatant was then aspirated off, and the cells were washed 2× with 200 μl of buffer 1. The cells were treated with 60 μl of the appropriate substance concentrations at 37° C. for 2 h. The cells were then lysed with 60 μl of buffer 2 (put onto the supernatant) (on a plate shaker at RT for 30 min). The test conjugates (cAMP-D2 and anti-cAMP cryptate, CIS Bio) were diluted in buffer 3 in accordance with the manufacturers' information. The actual mixture for measurement was pipetted into a black 96-well plate (in each case 15 μl of the cell lysate diluted with 35 μl of buffer 1; firstly 25 μl of cAMP-D2 conjugate were pipetted and, after 10 min, 25 μl of the anti-cAMP cryptate were added). This is followed by incubation at RT for 90 minutes. The measurement was carried out in a PheraStar (BMG).
Dose-effect curve (hFSH) for the human receptor: 1e-8, 3e-9, 1e-9, 3e-10, 1e-10, 3e-11, 1e-11, 3e-12 mol/l.
The test substances were employed in suitable dilutions in the absence (test for agonism) and in the presence of 1e-9 mol/l hFSH.
The values of the well ratio were averaged and then entered directly in SigmaPlot versus the concentrations. The maximum and minimum values were determined for each plate, and half the difference is to be regarded as IC50.

Structure (SMILES)	IC50
CC(C)Oc1ccc(C#Cc2ccccc2CC(=O)O)cc1C(=O)N[C@@H](CO)Cc1c[nH]c2ccccc12 [Example 58, (2-{3-[(R)-1-Hydroxymethyl-2-(1H-indol-3-yl)-ethylcarbamoyl]-4-isopropoxy-phenylethynyl}-phenyl)-acetic acid]	2500 nM
CC(C)Oc1ccc(C#Cc2cncc(C3=NNC(=O)C3)c2)cc1C(=O)N[C@@H](CO)Cc1c[nH]c2ccccc12 [Example 66, N—[(R)-1-Hydroxymethyl-2-(1H-indol-3-yl)-ethyl]-2-isopropoxy-5-[5-(5-oxo-4,5-dihydro-1H-pyrazol-3-yl)-pyridin-3-ylethynyl]-benzamide]	10 nM
CC(C)Oc1ccc(C#Cc2ccccc2)cc1C(=O)NC(CO)Cc1c[nH]c2cc(F)ccc12 (stereo not shown) [Example 75, N-[2-(6-Fluoro-1H-indol-3-yl)-1-hydroxymethyl-ethyl]-2-isopropoxy-5-phenylethynyl-benzamide]	100 nM
CNC(=O)c1cccc(C#Cc2ccc(Cl)c(C(=O)NC(CO)Cc3c[nH]c4cc(F)ccc34)c2)c1 (stereo not shown) [Example 83, 2-Chloro-N-[2-(6-fluoro-1H-indol-3-yl)-1-hydroxymethyl-ethyl]-5-(3-methylcarbamoyl-phenylethynyl)-benzamide]	700 nM
CC(C)Oc1ccc(C#Cc2cncc(C(N)=O)c2)cc1C(=O)N[C@@H](CO)Cc1c[nH]c2ccccc12 [Example 97, 5-{3-[(R)-1-Hydroxymethyl-2-(1H-indol-3-yl)-ethylcarbamoyl]-4-isopropoxy-phenylethynyl}-nicotinamide]	15 nM
CC(C)Oc1ccc(C#Cc2ccsc2)cc1C(=O)N[C@@H](CO)Cc1c[nH]c2ccccc12 [Example 100, N-[(R)-2-Hydroxy-1-(1H-indol-3-ylmethyl)-ethyl]-2-isopropoxy-5-thiophen-3-ylethynyl-benzamide]	70 nM
CC(C)Oc1ccc(C#Cc2ccc(OCCN(C)C)cc2)cc1C(=O)N[C@@H](CO)Cc1c[nH]c2ccccc12 [Example 103, 5-[4-(2-Dimethylamino-ethoxy)-phenylethynyl]-N-[(R)-1-hydroxymethyl-2-(1H-indol-3-yl)-ethyl]-2-isopropoxy-benzamide]	1300 nM
CC(C)Oc1ccc(C#Cc2ccc(C3(O)CCNCC3)cc2)cc1C(=O)N[C@@H](CO)Cc1c[nH]c2ccccc12 [Example 106, N-[(R)-1-Hydroxymethyl-2-(1H-indol-3-yl)-ethyl]-5-[4-(4-hydroxy-piperidin-4-yl)-phenylethynyl]-2-isopropoxy-benzamide]	4000 nM
CC(C)Oc1ccc(C#Cc2ccc(-c3ccccc3)cc2)cc1C(=O)N[C@@H](CO)Cc1c[nH]c2ccccc12 [Example 111, 5-Biphenyl-4-ylethynyl-N-[(R)-1-hydroxymethyl-2-(1H-indol-3-yl)-ethyl]-2-isopropoxy-benzamide]	2000 nM
CC(C)Oc1ccc(C#Cc2ccc3[nH]ncc3c2)cc1C(=O)N[C@@H](CO)Cc1c[nH]c2ccccc12 [Example 113, N-[(R)-2-Hydroxy-1-(1H-indol-3-ylmethyl)-ethyl]-5-(1H-indazol-5-ylethynyl)-2-isopropoxy-benzamide]	25 nM

Now from value to compound:

IC50	Structure (SMILES)
150 nM	COc1ccc(C#Cc2ccc(OC(C)C)c(C(=O)N[C@@H](CO)Cc3c[nH]c4ccccc34)c2)cc1F [Example 30, 5-(3-Fluoro-4-methoxy-phenylethynyl)-N-[(R)-2-hydroxy-1-(1H-indol-3-ylmethyl)-ethyl]-2-isopropoxy-benzamide]
500 nM	Cc1cc(C)cc(C#Cc2ccc(OC(C)C)c(C(=O)N[C@@H](CO)Cc3c[nH]c4ccccc34)c2)c1 [Example 40, 5-(3,5-Dimethyl-phenylethynyl)-N-[(R)-1-hydroxymethyl-2-(1H-indol-3-yl)-ethyl]-2-isopropoxy-benzamide]
150 nM	CC(C)Oc1ccc(C#Cc2cncnc2)cc1C(=O)N[C@@H](CO)Cc1c[nH]c2ccccc12 [Example 46, N-[(R)-1-Hydroxymethyl-2-(1H-indol-3-yl)-ethyl]-2-isopropoxy-5-pyrimidin-5-ylethynyl-benzamide]
30 nM	Cc1ccc(C)c(C#Cc2ccc(OC(C)C)c(C(=O)N[C@@H](CO)Cc3c[nH]c4ccccc34)c2)c1 [Example 48, 5-(2,5-Dimethyl-phenylethynyl)-N-[(R)-1-hydroxymethyl-2-(1H-indol-3-yl)-ethyl]-2-isopropoxy-benzamide]
80 nM	CC(C)Oc1ccc(C#Cc2ccc3ccccc3c2)cc1C(=O)N[C@@H](CO)Cc1c[nH]c2ccccc12 [Example 52, N-[(R)-1-Hydroxymethyl-2-(1H-indol-3-yl)-ethyl]-2-isopropoxy-5-naphthalen-2-ylethynyl-benzamide]
30 nM	CC(C)Oc1ccc(C#Cc2ccc3c(c2)C(=O)NCC3)cc1C(=O)N[C@@H](CO)Cc1c[nH]c2ccccc12 [Example 68, N-[(R)-1-Hydroxymethyl-2-(1H-indol-3-yl)-ethyl]-2-isopropoxy-5-(1-oxo-1,2,3,4-tetrahydro-isoquinolin-7-ylethynyl)-benzamide]
45 nM	CNC(=O)CCCc1ccc(C#Cc2ccc(OC(C)C)c(C(=O)N[C@@H](CO)Cc3c[nH]c4ccccc34)c2)cc1 [Example 70, N-[(R)-1-Hydroxymethyl-2-(1H-indol-3-yl)-ethyl]-2-isopropoxy-5-[4-(3-methylcarbamoyl-propyl)-phenylethynyl]-benzamide]
2500 nM	CNC(=O)c1ccc(C#Cc2cccc(C(=O)N[C@@H](CO)Cc3c[nH]c4ccccc34)c2)cc1 [Example 72, N-[(R)-1-Hydroxymethyl-2-(1H-indol-3-yl)-ethyl]-5-(4-methylcarbamoyl-phenylethynyl)-benzamide]
3500 nM	CNC(=O)c1cccc(C#Cc2ccc(Cl)c(C(=O)N[C@@H](CO)Cc3c[nH]c4ccccc34)c2)c1 [Example 79, 2-Chloro-N-[(R)-2-hydroxy-1-(1H-indol-3-ylmethyl)-ethyl]-5-(3-methylcarbamoyl-phenylethynyl)-benzamide]
60 nM	CC(C)Oc1ccc(C#Cc2ccc(C(=O)O)o2)cc1C(=O)N[C@@H](CO)Cc1c[nH]c2ccccc12 [Example 88, 5-{3-[(R)-1-Hydroxymethyl-2-(1H-indol-3-yl)-ethylcarbamoyl]-4-isopropoxy-phenylethynyl}-furan-2-carboxylic acid]
80 nM	Cc1ccc(C#Cc2ccc(OC(C)C)c(C(=O)N[C@@H](CO)Cc3c[nH]c4ccccc34)c2)nc1 [Example 94, N-[(R)-1-Hydroxymethyl-2-(1H-indol-3-yl)-ethyl]-2-isopropoxy-5-(5-methyl-pyridin-2-ylethynyl)-benzamide]
350 nM	CC(C)Oc1ccc(C#Cc2ccc(C#N)cc2)cc1C(=O)N[C@@H](CO)Cc1c[nH]c2ccccc12 [Example 110, 5-(4-Cyano-phenylethynyl)-N-[(R)-1-hydroxymethyl-2-(1H-indol-3-yl)-ethyl]-2-isopropoxy-benzamide]
